How the values were obtained:
[1] = target: T1, LexA-TetR fusion protein (Escherichia coli, UniProt P04483); experiment: Y3H LacZ assay for tetracyclines; assay type: cell-based, Saccharomyces cerevisiae
T1 construct: expressed in transfected cells; host or cells: Saccharomyces cerevisiae: FY250-derived PBA-8 (LacZ), LW2635-derived PBA-14 (URA3 growth), FY250-derived HL-2-4-1 (mCherry); the other entry of the earlier key: lexA (P0A7C2, LexA repressor)
Description: Protocol for Y3H LacZ Assay. […] Pelleting and resuspension were repeated once more. […] The assay plate was placed in the shaker overnight. OD measurements were then taken after 24 h, and the cells ere pelleted and resuspended in 100 μL of Z-buffer (60 mM Na2HPO4, 40 mM NaH2PO4, 10 mM KCl, 2 mM MgSO4, pH adjusted to 7, 2.7 mL/L of β-mercaptoethanol added fresh the day of the assay). The cells were pelleted again, resuspended in 100 μL of Y-PER buffer (Fisher Scientific, no. 78990), and lysed for 30 min at rt before the addition of o-nitrophenyl β-Dgalactopyranoside (ONPG) in Z-buffer (8.5 μL, 10 mg/mL). After 90 min, a Na2CO3 solution (1 M, 110 μL) was added to quench the reaction. After pelleting at 3000 rpm, 175 μL of the supernatant was transferred into flat clear-bottom 96-well plates (Corning no. 353072), and OD420 was measured. The limit of detection was calculated as the concentration of molecule at which the signal-to-noise ratio of the assay was >3:1.^32,33

[2] = relative to tetracycline, literature (ref. 55); cited from earlier work
[3] = target: T2, TetR (Escherichia coli, UniProt P04483); conditions: literature (ref. 37); cited from earlier work
[4] = target: T2, TetR; conditions: literature (ref. 37); cited from earlier work; remark: listed apart in the source
[5] = target: LexA-TetR(B) fusion protein (Escherichia coli, UniProt P04483); conditions: purified TAN-1612 0.5 μM in assay well, 10 μM CID, FIG. 4B
Description: Protocol for Fluorescent Protein Y3H Assay. Fresh patches of Y3H strain HL-2-4-1 were inoculated into HTU-media (1 mL) in 24-well plates (flat, clear bottom, Corning no. 3526) and placed in the shaker. After 24 h, the cells were pelleted by centrifugation at 3250 rpm and resuspended in H2O (1 mL). Pelleting and resuspension were repeated once more. OD600 was measured by diluting 10× into H2O, and the cells were diluted accordingly into H2O for OD600=1 to be used as a 10× solution. A total of 20 μL of cells of OD600=1 were added to the assay plate as the last component in the assay plate (flat, clear bottom, black 96-well plate, Corning no. 3603). […] Starting conditions in the assay plate were OD600=0.1, 2% galactose, 2% raffinose, 0% glucose, 1×HTU-, 10 μM CID, 2% DMSO. The assay plate was placed in the 30° C. shaker overnight before measuring OD600 and 620 nm fluorescence (λex=588 nm).^31
Overnight cultures were used to inoculate 100 mL of YPD in 500 mL conical flasks with a starting OD600 of 0.08. After 68 h, 1 mL of culture was pelleted in 1.5 mL Eppendorf tubes at 14 000 rpm, sterile filtered, and diluted 20× into H2O to be used as a 10× stock solution.
The plate was covered with two layers of SealMate film (Excel Scientific, SM-KIT-BS) and placed in a shaker overnight. […]

[6] = tested on: LexA-TetR fusion proteins of TetR classes A, B, C, D, E, G and H; experiment: Y3H LacZ assay with varying TetR classes; assay type: cell-based, Saccharomyces cerevisiae; conditions: FIG. 2B
Description: Y3H Strain Construction. LexA-TetR Plasmids. Plasmids PBA-Gib5 and HL-249-1 through HL-249-6 encoding LexA-TetR protein fusions for the various TetR classes were cloned by Gibson Assembly of the appropriate TetR sequence with pMW103 digested with restriction enzymes BamHI-HF and EcoRI-HF (Table 3). All TetR sequences with the exception of B) were obtained as IDT gBlocks. TetR(B) sequence was amplified from pET21d-TetR, courtesy of A. Davidson.^25,26
LacZ Assay Strain Construction. V506 was grown overnight in UT-media.^27 The culture was then diluted […] with UT- and plated on UT-plates. Single colonies were streaked on HTU- and UT-plates and a streak growing on UT- but not on HTU-, indicating the loss of the pMW3-(GSG)2rGR2 plasmid, was glycerol stocked as PBA5. This strain was further used for the transformation of the LexA-TetR plasmids to generate LacZ assay strains PBA8 and HL-260-1 through HL-260-7.
Protocol for Y3H LacZ Assay. […] Pelleting and resuspension were repeated once more. […] The assay plate was placed in the shaker overnight. […] After pelleting at 3000 rpm, 175 μL of the supernatant was transferred into flat clear-bottom 96-well plates (Corning no. 353072), and OD420 was measured. The limit of detection was calculated as the concentration of molecule at which the signal-to-noise ratio of the assay was >3:1.^32,33

9-NH2-minocycline
concentrations differentiated by the Y3H system (range) ([1]; LacZ reporter, competition with Min-Mtx CID, FIG. 2C): 0.2 to 20 µM
acid stability [2]: high acid stability relative to tetracycline

Cc1c2c(c(O)c3c(O)cccc13)C(=O)C1(O)C(=O)C(C(N)=O)=C(O)CC1C2 (centres unmarked) [4-de(dimethylamino)-anhydrotetracycline]
induction in TetR-TetO-based assay [3]: no induction was detected
binding to TetR [4]: possible to detect binding

COc1cc(O)c2c(O)c3c(cc2c1)CC1(O)CC(=O)C(C(C)=O)=C(O)C1(O)C3=O (centres unmarked) [TAN-1612]
Y3H signal (mCherry) of purified compound spiked into nonproducer supernatants [5]: resembles the signal obtained with producer supernatant

CN(C)c1cc(NC(=O)CNC(=O)CC[C@H](NC(=O)c2ccc(N(C)Cc3ccc4nc(N)nc(N)c4c3)cc2)C(=O)O)c(O)c2c1C[C@H]1C[C@H]3C(N(C)C)C(O)=C(C(N)=O)C(=O)[C@@]3(O)C(O)=C1C2=O (some centres unmarked) [Min-Mtx CID]
reporter gene output dependence on CID ([1]; varying concentrations of Min-Mtx CID, FIG. 2A): dependent upon the presence of the CID
response to the CID, best TetR classes ([6]; TetR(B) and TetR(G)): showed the best response to the CID
responsiveness of the Y3H system to the CID ([6]; all TetR classes tested as protein receptors): responsive to the CID with all known TetR classes except for the TetR(C) variant used
